In patent publication US10980776B2, “Synergistic pharmaceutical combination for the treatment of squamous cell carcinoma of head and neck” (Piramal Enterprises Limited, priority 2011, dated 2021):

Tests used:
Detroit-562 cells [1] = assay: Combination studies (single and sequential combination dosing), % cytotoxicity in Detroit-562 cells; conditions: Detroit-562
Experimental: (§1) Logarithmically growing cells were plated at a density of 3×10^3 cells/well and allowed to recover overnight. […] After 72 hours, cell toxicity was determined by CCK-8 (Cell Counting Kit-8) reagent (Dojindo Molecular Technologies, Japan); WST-8 (2-(2-methoxy-4-nitrophenyl)-3-(4-nitrophenyl)-5-(2, 4-disulfophenyl)]-2H-tetrazolium, monosodium salt) assay. In accordance with the manufacturer's instructions, 5 μl/well CCK-8 reagent was added and plates were incubated for 2 hours. The toxicity was determined by measuring the absorbance on Tecan Sapphire multi-fluorescence micro-plate reader (Tecan, Germany, GmbH) at a wavelength of 450 nm corrected to 650 nm and normalized to controls.
(§2) CCK-8 allows convenient assays using Dojindo's tetrazolium salt, WST [8[(2-(2-methoxy-4-nitrophenyl)-3-(4-nitrophenyl)-5-(2,4-disulfophenyl)-2H-tetrazolium, monosodium salt], which produces a water-soluble formazan dye upon bioreduction in the presence of an electron carrier, 1-Methoxy PMS. CCK-8 solution is added directly to the cells; no pre-mixing of components is required. CCK-8 is a sensitive nonradioactive colorimetric assay for determining the number of viable cells in cell proliferation and cytotoxicity assays. WST-8 is bio-reduced by cellular dehydrogenases to an orange formazan product that is soluble in tissue culture medium. The amount of formazan produced is directly proportional to the number of living cells. The detection sensitivity of cell proliferation assays using WST-8 is higher than assays using the other tetrazolium salts such as MIT, XTT, MTS or WST-1. Optical Density was determined at measurement wavelength of 450 nm and reference wave length of 630 nm.
(§3) Sorafenib in the following dose of final concentration 1.8 μM and compound A in the following doses of final concentration 0.5 μM, 1.3 μM and 12.1 μM were analyzed in single dose and in all possible combinations of the dose range for the two anticancer agents mentioned above. The sequence of treatment is as follows; Detroit-562 cells were treated with sorafenib for 0 to 24 hrs. At the end of 24 hrs the cells were washed two times with plain MEM medium. Fresh MEM with 10% serum (200 μL/well) was added, followed by treatment with compound A from 24 hrs to 96 hrs.
as §3, with “compound B” for “compound A”, “concentration 2.7” for “concentration 0.5”, “μM, 14.1” for “μM, 1.3”, “and 25.2” for “and 12.1”, “follows; the” for “follows;”
as §3, with “Lapatinib” for “Sorafenib”, “1” for “1.8”, “follows; the” for “follows;”, “lapatinib” for “sorafenib”
(§4) Lapatinib in the following dose of final concentration 1.0 μM and compound B in the following doses of final concentration 2.7 μM, 14.1 μM and 25.2 μM were analyzed in single dose and in all possible combinations of the dose range for the two drugs mentioned above. The sequence of treatment is as follows; the Detroit-562 cells were treated with lapatinib for 0 to 24 hrs. At the end of 24 hrs the cells were washed two times with plain MEM medium. Fresh MEM with 10% serum (200 μL/well) was added, followed by treatment with compound A from 24 hrs to 96 hrs.

SCC-25 cells [2] = assay: Combination studies (single and sequential combination dosing), % cytotoxicity in SCC-25 cells; conditions: SCC-25; single agent at IC70 (compound A 4.1 μM)
Experimental: as §1, §2
Sorafenib in the following dose of final concentration 0.18 μM and compound A in the following doses of final concentration 0.1 μM, 0.4 μM and 4.1 μM were analyzed in single dose and in all possible combinations of the dose range for the two anticancer agents mentioned above. The sequence of treatment is as follows; the SCC-25 cells were treated with sorafenib for 0 to 24 hrs. At the end of 24 hrs the cells were washed two times with plain MEM (minimum essential media) medium. Fresh MEM with 10% serum (200 μL/well) was added, followed by treatment with compound A from 24 hrs to 96 hrs.
Sorafenib in the following dose of final concentration 0.18 μM and compound B in the following doses of final concentration 0.2 μM, 1.1 μM and 4.8 μM were analyzed in single dose and in all possible combinations of the dose range for the two anticancer agents mentioned above. The sequence of treatment is as follows; the SCC-25 cells were treated with sorafenib for 0 to 24 hrs. At the end of 24 hrs the cells were washed two times with plain MEM medium. Fresh MEM with 10% serum (200 μL/well) was added, followed by treatment with compound B from 24 hrs to 96 hrs.
as §4, with “0.2” for “1.0”, “A” for “B”, “0.2” for “2.7”, “0.5” for “14.1”, “3.3” for “25.2”, “SCC-25” for “Detroit-562”
as §4, with “0.2” for “1.0”, “0.2” for “2.7”, “1.1” for “14.1”, “4.8” for “25.2”, “SCC-25” for “Detroit-562”

SCC-25 cells [3] = assay: CCK-8 cytotoxicity assay, determination of inhibitory concentrations in SCC-25 cells; assay type: cell-based; conditions: SCC-25 cells, 72 hr
Experimental: as §1, §2
(§5) The cells were seeded at a density of 3000 cells/well, in a 200 μL in tissue culture grade 96 well plate and were allowed to recover for 24 hrs in a humidified 5%±0.2 CO2 incubator at 37° C.±0.5° C. […] The final DMSO concentration was 0.5% in wells. Plates were incubated for 48 hrs in humidified 5%±0.2 CO2 incubator at 37±0.5° C. After 48 hrs the plates were removed from CO2 incubator and 5 μL of Cell counting Kit (CCK-8) per well was added. The same plate was kept at 37° C. for 3 hrs, and allowed to come to room temperature. The absorbance at a wavelength of 450 nm was read on Tecan safire reader. The percent cytotoxicity was calculated using the following formula.

Detroit-562 cells [4] = assay: CCK-8 cytotoxicity assay, determination of inhibitory concentrations in Detroit-562 cells; assay type: cell-based; conditions: 72 hr
Experimental: as §1, §2, §5

[5] = test system: FaDu (hypopharyngeal squamous cell carcinoma) xenografts; assay: In vivo efficacy in human head and neck cancer FaDu xenografts; conditions: FaDu xenografts in SCID mice; end of treatment, after 18 days; Compound A 35 mpk i.p. once daily 5 days a week; cisplatin 1 mpk i.p. once a week; cetuximab 2.5 mpk twice a week; 3 weeks
Experimental: In-vivo studies were carried out according to the method described in Clinical cancer search, 2003, 9, 6052-6061; the disclosure of which is incorporated herein by reference for the teaching of the assay.
The in-vivo studies were carried out using Xenograft models in Severe combined immune deficiency (SCID) mice strain—CbySmn.CB17-Prkdcscid/J, by the method described below. The statistically significant number of mice per group (n=6) was chosen in order to be able to statistically evaluate the study data.
FaDu cells were grown in MEM (minimum essential media) medium containing non-essential amino acids and 10% fetal calf serum in 5% CO2 incubator at 37° C. Cells were pelleted by centrifugation at 1000 rpm for 10 minutes. Cells were resuspended in pre-chilled mixture of saline to get a count of 6×10^6 cells per mL; 0.2 ml of this cell suspension was kept on ice and injected by subcutaneous (s.c.) route in SCID mice. Mice were observed every alternate day for palpable tumor mass. Once the tumor size reached a size of 3-5 mm in diameter, animals were randomized into respective groups of treatment and untreated controls. The treatment groups comprised of 5 groups viz. […] The control group received no treatment.
Measurement of tumor was done every 2-3 days apart. Growth inhibition percentage (GI %) was calculated at the end of experiment.

FADU cells [6] = test system: FADU cells
FADU cells [7] = assay: CCK-8 cytotoxicity assay, determination of inhibitory concentrations in FADU cells; assay type: cell-based, human; conditions: 72 hr
Experimental: as §1, §2, §5

CN1CC[C@@H](c2c(O)cc(O)c3c(=O)cc(-c4ccccc4Cl)oc23)[C@@H]1CO.Cl (relative stereo) [Compound A, (+)-trans-2-(2-Chloro-phenyl)-5,7-dihydroxy-8-(2-hydroxy-methyl-1-methyl-pyrrolidin-3-yl)-chromen-4-one hydrochloride]
% Cytotoxicity (Detroit-562 cells [1]; single agent at IC50 (compound A 1.3 μM), lapatinib study): 22% | % Cytotoxicity (Detroit-562 cells [1]; single agent at IC70, cisplatin/5-FU/compound A study): 18.02% | % Cytotoxicity (Detroit-562 cells [1]; single agent at IC70, erlotinib study): 34.32% | % Cytotoxicity (SCC-25 cells [2]): 29% | IC30 (SCC-25 cells [3]): 0.1 µM | IC70 (SCC-25 cells [3]): 4.1 µM | IC90 (SCC-25 cells [3]): 33.3 µM | IC50 (SCC-25 cells [3]; read-out: IC50): 0.4 µM | IC10 (Detroit-562 cells [4]): 0.1 µM | IC30 (Detroit-562 cells [4]): 0.5 µM | IC50 (Detroit-562 cells [4]): 1.3 µM | IC70 (Detroit-562 cells [4]): 12.1 µM | IC90 (Detroit-562 cells [4]): 26.3 µM | Tumor Growth inhibition (%) [5]: 11% | cytotoxicity (FADU cells [6]): 18% | IC10 (FADU cells [7]): 0.08 µM | IC30 (FADU cells [7]): 0.2 µM | IC50 (FADU cells [7]): 1.3 µM | IC70 (FADU cells [7]): 8.3 µM | IC90 (FADU cells [7]): 28.3 µM
